From publication PMC11410943 (Nature Communications, 2024)
Values after ≈ are worked out from the molar mass of the structure shown. Read-outs that look alike come from different tables or passages of the source.

Tests used:
K. pneumoniae = test: Neutropenic mouse; assay type: in vivo; conditions: SC every 8 h, wild-type and MDR isolates
P. aeruginosa [1] = test: Neutropenic rat lung infection model; conditions: IV infusion, MDR isolates
Dog cardiovascular study = assay type: in vivo
A. baumannii [2] = assay type: cell-based
P. mirabilis = test: MIC; conditions: Proteus mirabilis, read-out: median MIC
Enterobacter cloacae = test: MIC; conditions: Enterobacter cloacae
CYP3A4 = CYP3A4 (Homo sapiens, UniProt P08684); test: CYP reaction phenotyping; assay type: in vitro ADME
Sequence of CYP3A4 (P08684 whole entry): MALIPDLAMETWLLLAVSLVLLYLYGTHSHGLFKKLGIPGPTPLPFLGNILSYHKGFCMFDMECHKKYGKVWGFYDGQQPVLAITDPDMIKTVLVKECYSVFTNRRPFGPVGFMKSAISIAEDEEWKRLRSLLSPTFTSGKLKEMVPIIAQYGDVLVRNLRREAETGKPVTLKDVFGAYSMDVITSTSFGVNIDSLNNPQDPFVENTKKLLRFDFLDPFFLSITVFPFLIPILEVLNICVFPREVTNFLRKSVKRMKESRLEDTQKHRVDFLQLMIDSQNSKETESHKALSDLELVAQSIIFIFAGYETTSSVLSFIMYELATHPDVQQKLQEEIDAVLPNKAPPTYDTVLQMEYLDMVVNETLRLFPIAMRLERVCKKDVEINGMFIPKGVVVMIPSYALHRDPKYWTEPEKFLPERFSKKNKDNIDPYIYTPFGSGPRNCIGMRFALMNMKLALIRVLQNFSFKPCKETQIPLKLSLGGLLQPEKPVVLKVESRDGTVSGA

P. aeruginosa [3] = test: Killing kinetics assay; assay type: cell-based; conditions: 0.5X to 16X MIC, susceptible and MDR strains
E. coli = test: Neutropenic rat lung infection model; assay type: in vivo; conditions: IV infusion, MDR isolates
[4] = tested on: Stenotrophomonas maltophilia; test: MIC; conditions: IHMA/CARB-X MDR clinical isolates 2019, N=150
[5] = Hepatocyte stability / intrinsic clearance; assay type: in vitro ADME, monkey
[6] = tested on: other cardiac ion channels; test: Other cardiac ion channels; assay type: cell-based
[7] = Partitioning into red blood cells; assay type: in vitro ADME
[8] = Bile duct cannulation / excretion study in rats; assay type: in vivo, Sprague-Dawley rats
Citrobacter spp. = test: MIC; conditions: IHMA/CARB-X MDR clinical isolates 2019, N=151
Pseudomonas aeruginosa = test: MIC; conditions: for MIC: Pseudomonas aeruginosa
A. baumannii [9] = tested on: A. baumannii
A. baumannii [10] = test: Neutropenic mouse; assay type: in vivo; conditions: SC every 8 h, wild-type and MDR isolates
[11] = read-out: median MIC, panel of ATCC strains

Structure (SMILES): Cn1c(=O)ccc2ccc(F)c(CCNC[C@H]3CN(c4cnc5c(n4)NC(=O)CO5)C(=O)O3)c21 [BWC0977, 6-[(5S)−5-[[[2-(7-Fluoro-1,2-dihydro-1-methyl-2-oxo-8-quinolinyl)ethyl]amino]methyl]−2-oxo-3-oxazolidinyl]−2H-pyrazino[2,3-b]−1,4-oxazin-3(4H)-one]
- dose-ranging efficacy (bacterial burden) (K. pneumoniae): excellent dose-response
- dose-response efficacy (P. aeruginosa [1]): excellent bactericidal dose-response
- increase in QTc (Dog cardiovascular study; 1-hour infusion of 30 or 60 mg/kg, within 3−6 h): 4 to 11 ms
- heart rate (Dog cardiovascular study; 30 and 60 mg/kg): notable increase in heart rate
- in vitro killing kinetics (A. baumannii [2]): significant bactericidal activity
- MIC (P. mirabilis): 0.12 µg/mL (≈ 0.256 µM)
- MIC90 (Enterobacter cloacae; IHMA/CARB-X MDR clinical isolates 2019, N=152): 2 µg/mL (≈ 4.27 µM)
- MIC (Enterobacter cloacae; [11]): 0.06 µg/mL (≈ 0.128 µM)
- metabolism by CYP3A4 in reaction phenotyping assay (CYP3A4): 80%
- in vitro killing kinetics (P. aeruginosa [3]): significant bactericidal activity
- dose-response efficacy (E. coli): excellent bactericidal dose-response
- MIC90 [4]: 0.25 µg/mL (≈ 0.534 µM)
- clearance predicted from CLint, % of liver blood flow (LBF) [5]: < 30%
- concentration up to which other cardiac ion channels are not inhibited [6]: > 300 µM
- partitioning into red blood cells [7]: neither partitions into red blood cells
- total dose observed unchanged in the bile [8]: about 1.5%
- MIC90 (Citrobacter spp.): 1 µg/mL (≈ 2.13 µM)
- MIC90 (Pseudomonas aeruginosa; IHMA/CARB-X MDR clinical isolates 2019, N=300): 1 µg/mL (≈ 2.13 µM)
- MIC (Pseudomonas aeruginosa; NCTC13921, P. aeruginosa NCTC 13921): 0.25 µg/mL (≈ 0.534 µM)
- MIC (Pseudomonas aeruginosa; [11]): 0.25 µg/mL (≈ 0.534 µM)
- in vitro resistance frequency (A. baumannii [9]): 2.5 × 10^−9
- resistance frequency (A. baumannii [9]): 2.5 × 10^−8
- dose-ranging efficacy (bacterial burden) (A. baumannii [10]): excellent dose-response
